Earlier results, collected in US20240408115A1, “COMPOSITION AND METHODS OF TREATMENT USING […] - ENHANCED SUPPLEMENTATION” (Xygenyx Inc., priority 2023, published 2024).
Non-standard residues stand in square brackets, D forms with d. Residues, ends and D or L forms follow the SMILES beside them. Cit = NC(=O)NCCC[C@H](N)C(=O)O

Key:
[1] = penetration enhancer for transdermal drugs
[2] = test system: wide dynamic range neurons in the ventroposterolateral nucleus of the thalamus; details: in vivo
[3] = in vivo
[4] = topical formulations, within four weeks of treatment
[5] = topical, concentrations 0.5-5%
[6] = dietary supplementation, doses up to 400 IU/day
F2-isoprostane = details: large doses of 1600-3200 IU/day
[7] = compared to α-tocopherol = 1.0
[8] = dietary intake in equal portions
[9] = in vivo; remark: listed apart in the source

CC(C)[C@@H]1CC[C@@H](C)C[C@H]1O [Menthol]
increase of transdermal drug uptake (factor) [1]: ≥ 10

CCCCCc1cc(O)c2c(c1)OC(C)(C)C1CCC(C)=CC21 (stereo not drawn) [THC, Δ-9-tetrahydrocannabinol]
potency in mediating pain relative to morphine [2]: ten times more powerful than morphine

CCNC(=O)CC[C@H](N)C(=O)O [Theanine]
dose considered safe and well-tolerated [3]: up to 400 mg per day

CC[C@H](C)[C@H](NC(=O)[C@H](CC(=O)O)NC(=O)[C@@H](N)CCCCN)C(=O)N[C@@H](CCCNC(N)=O)C(N)=O [Tripeptide-10 citrulline] (H-KDI[Cit]-NH2)
improvement of suppleness [4]: ≤ 54%

C=CCCCCCCCCC(=O)N[C@@H](Cc1ccccc1)C(=O)O [UP, Undecylenoyl phenylalanine]
time to skin lightening effects [5]: ≥ 7 days

CC12CCC(CC1)C(C)(C)O2 [eucalyptol, 1,8-epoxy-p-menthane]
increase of transdermal drug uptake (factor) [1]: more than 10

Cc1c(C)c2c(c(C)c1O)CC[C@@](C)(CCC[C@H](C)CCC[C@H](C)CCCC(C)C)O2 [α-tocopherol]
reduction of risk of coronary disease [6]: up to 34%
reduction of risk of developing neurodegenerative diseases such as Alzheimer's Syndrome or dementia ([6]; controlled trials): ≤ 24%
blood plasma concentration of F2-isoprostane (F2-isoprostane): significantly lower
relative biological activity [7]: 1.0

Cc1cc(O)c(C)c2c1O[C@](C)(CCC[C@H](C)CCC[C@H](C)CCCC(C)C)CC2 [β-tocopherol]
relative biological activity [7]: 0.5

Cc1c(O)cc2c(c1C)O[C@](C)(CCC[C@H](C)CCC[C@H](C)CCCC(C)C)CC2 [γ-tocopherol]
relative biological activity [7]: 0.1
concentration in vivo relative to α-tocopherol [8]: roughly 10%

Cc1cc(O)cc2c1O[C@](C)(CCC[C@H](C)CCC[C@H](C)CCCC(C)C)CC2 [δ-tocopherol]
relative biological activity [7]: 0.03

HGH: hormone comprising a peptide chain that is synthesized in the pituitary gland
biological half-life [9]: 10-20 minutes
